What all share (format): cell-based
In assay [1] the target is T1, Solute carrier family 2, facilitated glucose transporter member 4 (Homo sapiens, UniProt P14672).
T1 sequence (P14672 whole entry): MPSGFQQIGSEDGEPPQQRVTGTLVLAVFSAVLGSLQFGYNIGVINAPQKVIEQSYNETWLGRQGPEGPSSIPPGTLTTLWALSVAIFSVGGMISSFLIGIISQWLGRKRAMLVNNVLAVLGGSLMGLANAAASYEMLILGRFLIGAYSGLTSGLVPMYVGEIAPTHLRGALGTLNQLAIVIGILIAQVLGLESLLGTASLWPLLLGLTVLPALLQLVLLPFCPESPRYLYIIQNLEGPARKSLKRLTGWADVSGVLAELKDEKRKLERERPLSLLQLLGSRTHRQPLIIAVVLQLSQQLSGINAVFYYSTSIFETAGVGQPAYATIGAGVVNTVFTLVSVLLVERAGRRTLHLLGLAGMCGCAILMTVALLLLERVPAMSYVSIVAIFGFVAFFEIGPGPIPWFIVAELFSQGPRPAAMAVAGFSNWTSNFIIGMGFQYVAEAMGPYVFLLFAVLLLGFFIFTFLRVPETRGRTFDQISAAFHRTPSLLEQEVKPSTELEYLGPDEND
As to the kind of experiment: Inhibition of human GLUT4 expressed in CHO cells measured after 15 mins by cell-titer-Glo luminescent cell viability assay.

Assay [2] deals with T2, Solute carrier family 2, facilitated glucose transporter member 1 (Mus musculus) (UniProt P17809).
T2 sequence (whole entry): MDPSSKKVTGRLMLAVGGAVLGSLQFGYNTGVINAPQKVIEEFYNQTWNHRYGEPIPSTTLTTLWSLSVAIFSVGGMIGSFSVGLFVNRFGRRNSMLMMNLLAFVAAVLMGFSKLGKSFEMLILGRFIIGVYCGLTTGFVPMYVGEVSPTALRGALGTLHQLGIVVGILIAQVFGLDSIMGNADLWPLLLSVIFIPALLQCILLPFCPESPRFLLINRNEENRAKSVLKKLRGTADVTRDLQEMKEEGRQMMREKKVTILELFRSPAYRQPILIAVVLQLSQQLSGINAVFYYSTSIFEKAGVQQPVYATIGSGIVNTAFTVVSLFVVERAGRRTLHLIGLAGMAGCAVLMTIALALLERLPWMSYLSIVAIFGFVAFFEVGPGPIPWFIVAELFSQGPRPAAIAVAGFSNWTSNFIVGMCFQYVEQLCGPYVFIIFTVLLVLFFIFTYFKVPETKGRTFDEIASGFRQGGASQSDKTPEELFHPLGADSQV
Briefly: Inhibition of GLUT1 in mouse 3T3-L1 cells assessed as reduction in insulin-stimulated [3H]-2-deoxyglucose uptake at 20 nM incubated for 30 mins by [3H]-2-deoxyglucose uptake assay.

The target of assay [3] is T2, Solute carrier family 2, facilitated glucose transporter member 1 (Mus musculus). As to the kind of experiment: Inhibition of GLUT1 in mouse 3T3-L1 cells assessed as reduction in insulin-stimulated [3H]-2-deoxyglucose uptake at 2 uM incubated for 30 mins by [3H]-2-deoxyglucose uptake assay.

`Cc1c(NC(=O)c2cc(C(N)=O)nc3cc(F)ccc23)c(C(F)(F)F)nn1Cc1ccc(C#N)cc1` [BAY-876]: it took 200 nM to reach half-maximal inhibition in assay [1] (IC50). Moreover, the results for the inhibition in assay [2] and in assay [3] were 25% and 100%, respectively.

For the origin of these results see ChEMBL document CHEMBL5674886, “GLUT4 expression and glucose transport in human induced pluripotent stem cell-derived cardiomyocytes” (PLoS One, 2019).
